Tests used:
serum phosphate = experiment: Phase II dose finding study (DONATO), patients on hemodialysis: serum phosphate; format: in vivo, human; conditions: for a 0.22603 mmol/l phosphate level reduction against compare group; dose response of modified release capsules, 4 weeks
Description: Secondary outcome criteria included a comparison of the two different […] of nicotinamide by means of several measures of safety and efficacy.

[1] = test system: S-phosphate, fractional phosphate elimination, FGF23; experiment: DBA/2 mice: S-phosphate, fractional phosphate elimination, FGF23; format: in vivo, mouse; conditions: for FGF23 / fractional phosphate elimination: DBA/2 mice
Description: For this purpose, 5/6 nephrectomized DBA/2 mice were used as model for vascular calcification.

GPR109A receptor = GPR109A receptor (Homo sapiens, UniProt Q8TDS4); conditions: cited from earlier work
Sequence of GPR109A receptor (Q8TDS4 whole entry): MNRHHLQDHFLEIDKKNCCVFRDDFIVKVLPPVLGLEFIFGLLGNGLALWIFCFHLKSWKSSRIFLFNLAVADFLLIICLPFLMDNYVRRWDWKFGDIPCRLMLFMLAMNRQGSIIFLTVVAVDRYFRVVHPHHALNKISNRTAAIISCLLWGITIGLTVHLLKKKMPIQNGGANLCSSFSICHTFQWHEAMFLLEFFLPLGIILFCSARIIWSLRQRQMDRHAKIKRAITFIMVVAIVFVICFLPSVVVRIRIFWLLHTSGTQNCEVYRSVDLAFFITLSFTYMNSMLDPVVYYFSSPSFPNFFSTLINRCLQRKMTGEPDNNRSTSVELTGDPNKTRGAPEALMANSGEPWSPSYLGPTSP

[2] = given in combination with the phosphate binder sevelamer; cited from earlier work

Row | SMILES | minimum effective dose (serum phosphate) [mg] | FGF23 [1] | fractional phosphate elimination [1] | S-phosphate ([1]; only in healthy DBA/2 mice with high phosphate diet, NA in the drinking water) | binding to or effect on the GPR109A receptor (GPR109A receptor) | treatment of hyperphosphatemia [2]
1 | NC(=O)c1cccnc1 [nicotinamide] | 450 | reduction | reduction | decrease | does not bind or otherwise affect | ineffective
2 | O=C([O-])[O-].[Mg+2] [magnesium carbonate] |  | reduction | reduction |  |  | 
